{"source": "patent US12383628B2", "about": "(priority 2016, dated 2025)", "key": {"[1]": {"experiment": "Peptide gelation (tilted tube / inverted vial test, minimum gelation concentration)", "assay_type": "physicochemical", "details": "for Minimum gelation concentration: PBS 10 mM; for Minimum gelation concentration (w/v % in PBS): '/' = no gel", "description": "The peptide gelation occurred by dissolving the TFA salt of the hexapeptide (2 mg) in 100 μL of PBS solution (pH 7.4) or physiological saline solution (0.9% NaCl).\nBoth peptides 2 and 4 (Table 1) gave a transparent gel in the same conditions (PBS 10 mM at pH 7.4 with a minimum gelation concentration of 24 mM; 2% w/v). To evaluate the mechanical properties of these hydrogels in a more quantitative manner, rheological experiments were performed. The viscoelastic properties of the peptide hydrogels were measured by dynamic rheometry at 37° C. This technique allowed to measure the storage modulus G′ (corresponding to the material's stiffness or rigidity), loss modulus G″ (corresponding to the viscous properties of the material) and loss factor tan (o) (ratio of G″ over G′). According to the Winter-Chambon criterion, a material reaches gelation in rheological terms if the phase angle o gets frequency-independent (F. Chambon et al., 1987 and H. Winter et al., 1987).\nThe peptide gelation occurred by dissolving the TFA salt of the peptide in 100 μL of PBS solution or physiological saline solution (0.9% NaCl) (pH 7.4).\nThe peptide gelation occurs by dissolving the TFA salt of the hydrogelator (1 or 2 mg) in 100 μL of aqueous media, PBS solution (pH 7.4) or physiological saline solution (0.9% NaCl). After successive vortexing and sonication, the gel is left to rest overnight at room temperature.\nThe hydrogelation was realized under physiologically relevant conditions, namely via the addition of phosphate-buffered saline (PBS) or sterile physiological saline solution (0.9% NaCl). The needed amount of hydrogelator was weighed in an Eppendorf® and solubilized by the addition of the above solutions. After vortex and sonication steps, the resulting solution was left at room temperature until gelation occurred. The gelation was qualitatively verified by the inverted vial test (if no gravitational flow was visible the gelation was considered successful). It can be noticed that all peptide hydrogelators depicted formed gels in PBS and saline solution at a concentration of 1 to 2% w/v."}, "[2]": {"experiment": "pH of the hydrogel", "assay_type": "physicochemical"}, "[3]": {"experiment": "Dynamic rheometry of hydrogels (storage modulus G′)", "assay_type": "physicochemical", "details": "2% w/v in PBS, 37° C., value at 1 Hz", "experimental": "Dynamic rheometry measurements were performed on an AR-G2 rheometer (TA Instruments) equipped with electrically heated plates and a 10 mm-diameter aluminium parallel plate-plate geometry. Viscoelastic properties were measured by oscillatory frequency sweeps at 37° C. in the range between 0.01 and 10 Hz, using a controlled strain of 0.05%. Hydrogel samples were made 12 h in advance. A ring-shaped reservoir filled with a saturated NH4Cl solution was used as a solvent trap."}, "[4]": {"experiment": "TEM / cryo-TEM fibre morphology of hydrogels", "assay_type": "physicochemical", "details": "for Fibre thickness: TEM, Example 2", "description": "Formvar carbon-coated 400-mesh copper grids (Agar Scientific, Stansted, United Kingdom) were treated with plasma using an ELMO Glow discharge system to clean the grid surface and to render the carbon surface hydrophilic. Hydrogel samples were prepared 12 h in advance as described above. Small aliquots of sample (5 μL) were pipetted onto the carbon grids for adsorption. After 30 s, excess of sample was removed by using a Whatman 541 filter paper. The loaded grids were stained during 10 s with 1% uranyl formate after which the grids were air-dried. Samples were analysed using a JEOL JEM-1400 transmission electron microscope, operating at accelerating voltage of 120 kV. Images were recorded on a CMOS TemCam-F416 camera and accessory software of TVIPS.\n200-mesh copper grids coated with perforated carbon film (Lacey carbon film: ProSci-Tech Old, Australia) were used and were glow discharged in nitrogen for 5 s immediately prior to use. Hydrogel samples were prepared 12 h in advance as described above. Small aliquots of sample (4 μL) were pipetted onto the carbon grids for adsorption. After 30 s, excess of sample was removed by using a Whatman 541 filter paper. The grid was then plunged into liquid ethane cooled by liquid nitrogen. Frozen grids were stored in liquid nitrogen until required. Samples were analysed using a Gatan 626 cryoholder and Tecnai 12 Transmission electron microscope, operating at accelerating voltage of 120 kV. Images were recorded using an FEI Eagle 4k×4k CCD camera."}, "[5]": {"test_system": "L929 (mouse fibroblast) cells", "experiment": "Live/Dead cell viability assay on hydrogels (Example 5)", "assay_type": "cell-based", "details": "24 h on hydrogel", "description": "L929 (mouse fibroblast) cells were obtained from ATCC® and maintained in Gibco®, MEM with GlutaMAX supplemented with 10% FBS (SAFC, Sigma), 1% Anti-Anti (100×, Gibco®) and 1% NEAA (100×, Gibco®). Cells were maintained on tissue culture treated polystyrene (TCPS) plates at 37° C. in a humified atmosphere containing 5% CO2 and 95% air. Cells were trypsinized, harvested and counted using a hemocytometer. The resulting cell suspension was diluted in Gibco® solution before addition to the hydrogels. For ease of handling and to produce homogeneous clear hydrogels, 100 μL of peptide hydrogels were prepared (in corresponding gelation conditions, see above) in Eppendorf tubes (0.5 ml) and transported using a 21G syringe to 96-well plates after simultaneously heating (60° C.) and mixing (900 rpm) using an Eppendorf ThermoMixer®. The hydrogels were left to set overnight in the wells at room temperature and were subsequently washed twice with 200 μL of Anti-Anti (100×, Gibco®) solution, 2 h each. After washing, media was removed and cells were seeded evenly over hydrogels. Cells were plated in duplicate on all hydrogels and control wells. Viability of cells on hydrogels was determined using the traditional Live/dead cell viability assay (Invitrogen) after culture durations of 24 h.\nPlates were incubated in 5% CO2 at 37° C. for 1 day to allow cell attachment and spreading to occur. […]"}, "[6]": {"test_system": "L929 mouse fibroblasts", "experiment": "Cytotoxicity, Live/Dead viability staining on hydrogels (Example 9)", "assay_type": "cell-based", "description": "Hydrogels were prepared at 1, 2 or 3 mg/100 μL as duplicate in a 96-well ULA plate (Cat #CORN3474; Corning-Costar, 60 μL each well). The gels were photographed and pre-equilibrated before seeding with cells. For equilibration, gels were incubated at room temperature in 40 μL of L929 culture medium with double-strength Anti-Anti (Cat #15240062, GIBCO) for 2 h prior to seeding with cells. The equilibration medium was removed before cell seeding and retained to examine if the gels dissolved (even partially) or disintegrated into the culture medium. Next, […] mouse fibroblasts (ATCC) were seeded onto hydrogels at a concentration of 200,000 cells/ml in a volume of 50 μl. The cells were photographed immediately after seeding, observed by microscopy 2 h post-seeding and then observed and photographed at 24 h post-seeding. The cell culture medium consisted of MEM+GlutaMAX I (Cat #41090-036; GIBCO); 10% foetal bovine serum (Cat #12003C; SAFC, Sigma), 2× Anti-Anti (Cat #[…]) and 1× Non-Essential Amino Acids (Cat #41090-036; GIBCO).\nBright field microscopy was performed through use of a IX71 inverted microscope with NIS-Elements F3.0 imaging software (Olympus). The TE2000 Eclipse fluorescent microscope with NIS-Elements AR3.2 software (Nikon) was used for fluorescence imaging microscopy. Automated cell counting was performed on the NC-200 NucleoCounter using proprietary lysis and stabilising reagents and cassettes (ChemoMetec).\nThe viability and distribution of cells was assessed using a LIVE/DEAD Viability/Cytotoxicity Kit *for Mammalian cells* (Live-Dead Kit), (Cat #13224; Molecular Probes). Briefly, a working solution of live/dead solution was made as per manufacturer's instructions by adding 1.25 μl of Calcein AM (solution A) to 2.5 ml of pre-warmed PBS. The solution was thoroughly mixed by vortex and 2.5 μl of Ethidium homodimer (solution B), was added before vortexing a second time to mix. Excess medium was removed and the gels rinsed with 20 μl of warm PBS before a 40 μl of Live/Dead kit working solution was added to each well. The plate was incubated in a 37° C. cell culture incubator for 20 min before viewing using a fluorescent microscope. Green fluorescence was emitted from the cytoplasm of viable cells (excitation/emission ˜495 nm/˜515 nm) while dead cell nuclei fluoresced red (excitation/emission ˜495/˜635 nm) allowing a distinction to be made between viable and dead cells."}, "[7]": {"details": "for Hydrogel volume remaining: 2 w/v% in PBS, 150 μL s.c.", "experimental": "^111/n-labeling of DOTA-peptide—^111InCb (5 μl,±4 MBq) (Mallinckrodt) was added to 200 μl 1 mg/ml DOTA-peptide 6, dissolved in 0.2 M ammonium acetate buffer (NH4OAc) pH 5, and incubated for 30 min at 50° C. Radiochemical purity (>95%) was verified by ITIC using 0.1 M citrate buffer pH 5 as mobile phase. 200 μl of ^111In-peptide 6 was diluted up to 1 ml with phosphate buffered saline (PBS, 10 mM) and incorporated within the hydrogel as described below.\nAfter sequential vortexing and sonication, hydrogels (2 w/v¾) were formed and let to rest overnight.\nC57Bl/6J mice were purchased by Charles River (n=3 per group) and all experimental procedures were performed under 2.5% isoflurane anesthesia (Iso-vet). 150 μL (0.518±0.037 MBq) of the ^111In-labeled hydrogel (stability experiment) or 150 μL (1.702±0.777 MBq) of hydrogels loaded with ^111In-labeled cargos (cargo release experiment) were injected subcutaneously on the hind limb. For comparison, 150 μL of ^111In-labeled cargos not loaded into a hydrogel were also subcutaneously injected. Immediately after injection, at 1 h30, 3 h, 6 h, 12 h, 24 h, 48 h and 72 h, animals were subjected to a SPECT/CT scan. SPECT images were acquired on an e.cam^180 system (Siemens) equipped with two triple-pinhole collimators designed for ^111In (1.5 mm pinhole opening, 250 mm focal length, 47 mm radius of rotation). Images were acquired over 360° in 64 projections of 30 s into a 128×128 matrix and reconstructed using an iterative algorithm correcting for radioactive decay and allowing automatic fusion with CT images (based on six 57Co fiducial markers). […]\nMaximum intensity projections (MIPs) were generated in Osirix Medical Software. Images were quantified using the software AMIDE (sourceforge.net). For the stability experiments, the size of the gel was determined by automatic delineation, for the cargo release experiments, the total radioactivity within a ROI drawn on the hind limb was calculated. Results were expressed as percentage of injected dose remaining in function of time. […]"}, "[8]": {"experiment": "in vitro", "details": "human, plasma, 37° C., in solution", "experimental": "(§1) Human plasma was obtained from the Belgian Red Cross (Vlaams-Brabant, Leuven). […] Frozen (−20° C.) human plasma samples were thawed and thermostated to 37+2° C. Dissolution of the lyophilized peptide and consecutive dilutions were performed in water. […] On every time point 100 μL spiked plasma was transferred to a 500 μL Eppendorf tube and a protein crash was performed using 300 μL methanol+0.1% TFA (4° C.). Suspensions were vortexed for 15 seconds and placed at 4° C. for 30 to 45 minutes. After centrifugation at 14000 rpm for 20 minutes, 100 μL supernatant was diluted with 100 μL water in the injection vial. Injection samples were vortexed for 5 seconds and placed in the autosampler. […] Concentrations were calculated by use of the calibration curve and transferred to a semi-log chart presenting the log concentrations as a function of time. The optimum curve was used to calculate the peptide-half life. Calculations were performed using Microsoft® Office Professional 2010 Excel."}, "[9]": {"experiment": "in vitro", "details": "human, plasma", "experimental": "Human plasma was obtained from the Belgian Red Cross (Vlaams-Brabant, Leuven). Prior to the stability test, selectivity, stability of the compound in the injection solvent, linearity, accuracy and precision of the method were investigated. Frozen (−20° C.) human plasma samples were thawed and thermostated to 37±2° C. Dissolution of the lyophilized peptide and consecutive dilutions were performed in water. The resulting aqueous solutions of each peptide individually was spiked in human plasma (10:90 v/v) with final plasma concentrations of 9 μM.\nOn every time point 100 μL spiked plasma was transferred to a 500 μL Eppendorf tube and a protein crash was performed using the corresponding precipitation solvent (4° C.). Suspensions were vortexed for 15 s and placed at 4° C. for 30 to 45 min. After centrifugation at 18 625 g for 20 min, 100 μL supernatant was diluted with 100 μL water in the injection vial.\nInjection samples were vortexed for 5 sand placed in the autosampler. […] Concentrations were calculated by use of the calibration curve and transferred to a semi-log chart presenting the log concentrations as a function of time. The optimum curve was used to calculate the peptide half-life. Calculations were performed using Microsoft® Office Professional 2010 Excel."}, "[10]": {"details": "after 4 days of incubation", "experimental": "as §1"}, "[11]": {"experiment": "In vivo monitoring of cargo release with fluorescence imaging", "design": "species or system athymic nude mice", "description": "Fluorescent cargo—IRDye800CW N-hydroxysuccinimide (NHS) ester (Li-COR Biosciences) was solubilized at 4 mg/l in PBS. The solution was stirred for 2 h in order to hydrolyze the NHS ester, resulting in compound 2 as fluorescent cargo (MW=1068 g/mol). The dye solution was either used as such, or incorporated within the hydrogel as described below.\nAnimal study protocols were approved by the Ethical Committee for Animal Experiments of the Vrije Universiteit Brussel (also for section 2.5.). After subcutaneous injection of 150 μl of hydrogel containing 0.5 nmol of IRDye 800CW in athymic nude mice (Charles River, n=3 per group), fluorescence reflectance images of the posterior side of the mice were acquired over 24 h using the Fluobeam800 (Fluoptics) under 2.5% isoflurane anesthesia (Iso-Vet, Eurovet NV/SA). Fluorescence images were overlaid with white light images for anatomical localization. Regions of interest (ROI) were drawn around the site of injection and total fluorescence signal was measured within these ROIs using ImageJ software."}, "[12]": {"experiment": "In vivo monitoring of cargo release with SPECT/CT", "design": "species or system C57Bl/6J mice", "description": "The ^111In-labeled molecules were diluted up to 1 ml with PBS and either used as such, or incorporated within the hydrogel as described below.\nImages were reconstructed using a filtered back-projection algorithm.\nImages were quantified using the software AMIDE (sourceforge.net)."}}, "note": "Entries after “also recorded” stand apart in the source; their conditions may differ. Read-outs that look alike come from different tables or passages of the source. Square brackets hold non-standard residues; d marks the D form. Ends that are not written are not given here. Peptide text beside a SMILES is read from it.", "data": [{"molecule": "FEFQFK-NH2 [peptide 2, H-Phe-Glu-Phe*-Gln-Phe-Lys-NH2]", "values": [{"measurement": "Re-gelation after injection", "setting": "[1]; 25G needle used for s.c. injections", "value": "immediate re-gelation after injection through a 25G needle"}, {"measurement": "Minimum gelation concentration", "setting": "[1]; pH 7.4", "value": 24, "unit": "mM"}, {"measurement": "Minimum gelation concentration", "setting": "[1]; pH 7.4 (text, Examples 1-2)", "value": 2, "unit": "% w/v"}, {"measurement": "Minimum gelation concentration (w/v % in PBS)", "setting": "[1]", "value": 2, "unit": "w/v %"}, {"measurement": "pH of the gel", "setting": "[2]", "value": 4.02}, {"measurement": "Storage modulus G′", "setting": "[3]", "value": "ca. 8000 Pa"}, {"measurement": "Fibre thickness", "setting": "[4]", "value": "ca. 10 nm"}, {"measurement": "Fibre diameter", "setting": "[4]; cryoTEM and negative staining, Example 9", "value": "~5", "unit": "nm"}, {"measurement": "Cytotoxicity (Live/Dead cell viability, qualitative)", "setting": "[5]", "value": "the majority of cells were green fluorescent and thus, were viable; also recorded: noncytotoxic"}, {"measurement": "Cytotoxicity in vitro", "setting": "[6]", "value": "showed no cytotoxicity in vitro"}, {"measurement": "Hydrogel volume remaining", "setting": "[7]; 12 h", "value": 24, "unit": "%"}, {"measurement": "Hydrogel volume remaining", "setting": "[7]; 72 h post-injection", "value": 9, "unit": "%"}, {"measurement": "Time within which most degradation occurred", "setting": "[7]; after subcutaneous injection of the hydrogel", "value": "≤ 12", "unit": "h"}, {"measurement": "half-life at 72 μM", "setting": "[8]", "value": "~15", "unit": "min"}, {"measurement": "half-life at 9 μM", "setting": "[9]", "value": "~15", "unit": "min"}]}, {"molecule": "NCCCC[C@@H](NC(=O)[C@@H](Cc1ccccc1)NC(=O)[C@@H](CCC(N)=O)NC(=O)[C@@H](Cc1ccccc1)NC(=O)[C@@H](CCC(=O)O)NC(=O)[C@H](N)Cc1ccccc1)C(N)=O", "note": "[peptide 4, H-DPhe-DGlu-DPhe*-DGln-DPhe-DLys-NH2] (H-[dF][dE][dF][dQ][dF][dK]-NH2)", "values": [{"measurement": "Minimum gelation concentration", "setting": "[1]; pH 7.4", "value": 24, "unit": "mM"}, {"measurement": "Minimum gelation concentration", "setting": "[1]; pH 7.4 (text, Examples 1-2)", "value": 2, "unit": "% w/v"}, {"measurement": "Minimum gelation concentration (w/v % in PBS)", "setting": "[1]", "value": 3, "unit": "w/v %"}, {"measurement": "Storage modulus G′", "setting": "[3]", "value": "ca. 1000 Pa"}, {"measurement": "Fibre thickness", "setting": "[4]", "value": "ca. 10 nm"}, {"measurement": "Cytotoxicity (Live/Dead cell viability, qualitative)", "setting": "[5]", "value": "evenly distributed number of red (dead cells) and green (live cells) fluorescent cells"}, {"measurement": "Stability after incubation with human plasma", "setting": "[10]", "value": "remained intact"}]}, {"molecule": "IRDye 800CW carboxylate", "values": [{"measurement": "Time the fluorescent signal remains visible", "setting": "[11]; dye co-formulated within hydrogel of peptide 2 (2 w/v%), s.c.", "value": "more than 24 h"}, {"measurement": "Fluorescent signal at the injection site", "setting": "[11]; dye injected s.c. as solution", "value": "reduces drastically within approximately two hours"}]}, {"molecule": "DOTA-4-amino-2-cyclohexylmethyl-indolo[3,4-c]azepin-2-on [small molecule 3]", "values": [{"measurement": "Clearance from the injection site", "setting": "[12]; 111In-labeled cargo s.c. in solution, 1 mg/ml", "value": "totally cleared within three hours"}, {"measurement": "Release profile", "setting": "[12]; co-formulated within hydrogel of peptide 2, s.c.", "value": "released in a rather fast manner"}]}]}
